{"source": "paper PMC5013675", "about": "“Nucleotide binding by the widespread high-affinity cyclic di-GMP receptor MshEN domain” (Nature Communications, 2016)", "type_in_all_cases": "binding", "key": {"VcMshEN_N L10A/L54A/L58A": {"system": "VcMshEN_N L10A/L54A/L58A"}, "VcMshEN_N L25A": {"system": "VcMshEN_N L25A"}, "VcMshEN_N G40I": {"system": "VcMshEN_N G40I"}, "VcMshEN L10A-L54A-L58A": {"system": "VcMshEN L10A-L54A-L58A"}, "VcMshEN_N L25A/L29A": {"system": "VcMshEN_N L25A/L29A"}, "VcMshEN_N G11L": {"system": "VcMshEN_N G11L"}, "VcMshEN L10A/L58A": {"target": "VcMshEN L10A/L58A"}, "VcMshEN_N L54A/L58A": {"system": "VcMshEN_N L54A/L58A"}, "VcMshEN G11L": {"target": "VcMshEN G11L"}, "VcMshEN_N L10A": {"system": "VcMshEN_N L10A"}}, "data": [{"smiles": "Nc1nc2c(ncn2[C@@H]2O[C@@H]3CO[P@](=O)(O)O[C@H]4[C@@H](O)[C@H](n5cnc6c(=O)[nH]c(N)nc65)O[C@@H]4CO[P@](=O)(O)O[C@H]3[C@H]2O)c(=O)[nH]1", "note": "[c-di-GMP, Cyclic dimeric GMP]", "values": [{"measurement": "Melting temperature Tm, + c-di-GMP", "setting": "VcMshEN_N L10A/L54A/L58A", "result": "53 ºC"}, {"measurement": "Melting temperature Tm, + c-di-GMP", "setting": "VcMshEN_N L25A", "result": "60 ºC"}, {"measurement": "Melting temperature Tm, + c-di-GMP", "setting": "VcMshEN_N G40I", "result": "56 ºC"}, {"measurement": "c-di-GMP binding in vitro", "setting": "VcMshEN L10A-L54A-L58A", "result": "abrogates the ability of VcMshEN to bind c-di-GMP"}, {"measurement": "Melting temperature Tm, + c-di-GMP", "setting": "VcMshEN_N L25A/L29A", "result": "59 ºC"}, {"measurement": "Tm Difference", "setting": "VcMshEN_N L25A/L29A", "result": "9 ºC"}, {"measurement": "Melting temperature Tm, + c-di-GMP", "setting": "VcMshEN_N G11L", "result": "52 ºC"}, {"measurement": "Dissociation constant (KD)", "setting": "VcMshEN L10A/L58A", "result": "cannot bind c-di-GMP"}, {"measurement": "Fold reduction of binding affinity", "setting": "VcMshEN L10A/L58A", "result": "> 100"}, {"measurement": "Melting temperature Tm, + c-di-GMP", "setting": "VcMshEN_N L54A/L58A", "result": "54 ºC"}, {"measurement": "Dissociation constant (KD)", "setting": "VcMshEN G11L", "result": "abrogated c-di-GMP binding"}, {"measurement": "Melting temperature Tm, + c-di-GMP", "setting": "VcMshEN_N L10A", "result": "56 ºC"}]}]}
